Laboratory results: patent US10702518B2, “TAF1 inhibitors for the therapy of cancer” (CeMM—Forschungszentrum für Molekulare Medizin GmbH, priority 2016, dated 2020)

Experiments:
TAF1(BD2) [1] = target: T1, TAF1(BD2) (Homo sapiens, UniProt P21675); assay: BROMOscan primary screen, binding to TAF1(BD2); conditions: for inhibition at 1 µM: read-out: TAF1_BD2 (% inhibition at 1 μM); for TAF1_BD2 (% inhibition at 1 μM): 1 μM compound, DMSO = 0%, 30 μM BI2536 = 100% inhibition
T1 construct: the second bromodomain of TAF1 (TAF1 (2)); purchased DiscoverX Corporation (contract assay); host or cells: T7 phage in E. coli host derived from BL21
T1 sequence (P21675 1519-1628 limits assumed): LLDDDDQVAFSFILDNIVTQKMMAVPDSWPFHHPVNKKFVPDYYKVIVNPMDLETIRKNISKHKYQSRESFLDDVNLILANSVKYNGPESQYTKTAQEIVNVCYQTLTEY
Description: The binding of these compounds to TAF1 was tested by DiscoverX Corporation (Fremont, Calif., USA) in a primary screen using the BROMOscan assay, which is a ligand binding site-directed competition assay that allows to quantitatively measure interactions between test compounds and bromodomains (see Fabian et al., 2005 for an explanation of the principle of this assay), according to the following protocol:
(§1) Bromodomain assays: T7 phage strains displaying bromodomains were grown in parallel in 24-well blocks in an E. coli host derived from the BL21 strain. E. coli were grown to log-phase and infected with T7 phage from a frozen stock (multiplicity of infection=0.4) and incubated with shaking at 32° C. until lysis (90-150 minutes). The lysates were centrifuged (5,000×g) and filtered (0.2 μm) to remove cell debris. Streptavidin-coated magnetic beads were treated with biotinylated small molecule or acetylated peptide ligands for 30 minutes at room temperature to generate affinity resins for bromodomain assays. The liganded beads were blocked with excess biotin and washed with blocking buffer (SeaBlock (Pierce), 1% BSA, 0.05% Tween 20, 1 mM DTT) to remove unbound ligand and to reduce non-specific phage binding. […] Test compounds were prepared as 1000× stocks in 100% DMSO and subsequently diluted 1:25 in monoethylene glycol (MEG). The compounds were then diluted directly into the assays such that the final concentrations of DMSO and MEG were 0.1% and 2.4%, respectively. All reactions were performed in polypropylene 384-well plates in a final volume of 0.02 ml. […] The bromodomain concentration in the eluates was measured by qPCR.

[2] = tested on: c-MYC expression in WT-KBM7; assay: c-MYC expression by RT-PCR in WT-KBM7; type: cell-based, human; conditions: 1, 10 and 20 μM, 24 hours
Description: (c) Percentage of c-MYC expression in WT-KBM7 treated with the selected compounds, assessed by RT-PCR. 1, 10 and 20 μM of each compound were used to treat cells for 24 hours; DMSO was used as negative control and (S)-JQ1 as positive control. Three biological replicates were performed (mean±STD).
RNA extraction was performed with TRIzol Reagent (Life Technologies) according to the manufacturer's protocol and Reverse Transcription (RT) was performed using the High Capacity cDNA Reverse Transcription Kit (Applied Biosystems) following the standard protocol.
QPCR was performed using the Power SYBR Green Master mix (Invitrogen) as described in the manufacturer's protocol.
Real-time amplification results were normalized to the endogenous housekeeping genes Actin or GAPDH. The relative quantities were calculated using the comparative CT (Cycle Threshold) Method (ΔΔCT Method).

KBM7 cells = assay: CellTiterGlo viability of control and TAF1 downregulated KBM7 cells; conditions: shRNA TAF1 vs control, 96 hours
THP1 cells [3] = assay: AnnexinV apoptosis assay in THP1 cells; conditions: 72 hours
Description: (f) Quantification of AnnexinV positive cells from immunofluorescence images. […] At least 3 biological replicates were performed and more than 1,500 cells were quantified for each point (mean±STD).
Apoptotic cells were detected using the Annexin V-FITC Apoptosis detection kit (Abcam) according to the manufacturer's instruction. Apoptosis quantification was performed with the Harmony software (PerkinElmer) for nuclei and cytoplasm detection and analysis, adapted for the nucleus diameter range and cell shape of the specific cell line used.

THP1 cells [4] = assay: Cell cycle assay in THP1 cells; conditions: 48 hours
Description: (e) Quantification of cells in S-phase by staining the nuclei with PI and analyzing DNA content by FACS. […] Three different biological replicates were performed and 30,000 cells were analysed each time (mean±STD).
For cell cycle analysis, cells were fixed with 70% ethanol for 24 hours, washed with PBS/0.1%-Tween and incubated with RNase for 20 minutes. Nuclei were stained with 5 μg/ml PI (propidium iodide, Sigma) for 10 minutes prior to FACS analysis (BD FACSCalibur Flow Cytometer).

REDS3 cells = assay: RFP reporter expression in REDS3 cells (live cell imaging); type: cell-based, human; conditions: for confirmed screening hit (RFP induction in REDS3 screen): library screen of 89,355 small molecules; for RFP expression in REDS3 cells: single agent
Description: Cells were seeded on clear flat bottom 96-well or 384-well plates (Corning) and treated with the indicated compounds for the specified conditions. Live cell imaging pictures were taken with the Operetta High Content Screening System (PerkinElmer), 20× objective and non-confocal mode.
Only RFP-positive nuclei were detected and counted.
The increase of RFP fluorescence, detected with the Operetta High Content Screening System (PerkinElmer), 20× objective and non-confocal mode, was used as read-out.
Briefly, the screening was divided in three parts called respectively 1) primary screening, 2) follow up and 3) validation. During the primary screening REDS3 cells were treated with 10 μM of every compound, and live cell imaging pictures were taken in order to assess their ability to induce RFP expression 24 hours later.

TAF1(BD2) [5] = target: T1, TAF1(BD2); assay: BROMOscan binding constant determination for TAF1(BD2); conditions: 11-point 3-fold dilution series, read-out: TAF1_BD2 (IC50 μM)
Description: as §1, with “100% DMSO. Kds were determined using an 11-point 3-fold compound dilution series with one” for “100%”, “control point. […]” for “and subsequently diluted 1:25 in monoethylene glycol (MEG).”, “concentration” for “concentrations”, “was 0.09%.” for “and MEG were 0.1% and 2.4%, respectively.”, “reactions” for “reactions were”, “plates. Each was” for “plates in”
Compound handling: An 11-point 3-fold serial dilution of each test compound was prepared in 100% DMSO at 1000× final test concentration. […] The compounds were then diluted directly into the assays such that the final concentration of DMSO was 0.09%. Most Kds were determined using a compound top concentration=10,000 nM. If the initial Kd determined was <0.169 nM (the lowest concentration tested), the measurement was repeated with a serial dilution starting at a lower top concentration.
Binding constants (Kds) were calculated with a standard dose-response curve using the Hill equation: […]
The Hill Slope was set to −1. Curves were fitted using a non-linear least square fit with the Levenberg-Marquardt algorithm.
The results thus obtained are reported in the following table as IC50 values [μM] for TAF1(BD2).

H23 cells = assay: Cell viability of H23 cells, combination with (S)-JQ1; type: cell-based
CREBBP = CREBBP (Homo sapiens, UniProt Q92793); assay: BromoScan / BromoELECT / BromoKdELECT, CREBBP; type: binding; conditions: BromoScan/BromoELECT, 10 μM
Sequence of CREBBP (Q92793 1085-1192 limits assumed): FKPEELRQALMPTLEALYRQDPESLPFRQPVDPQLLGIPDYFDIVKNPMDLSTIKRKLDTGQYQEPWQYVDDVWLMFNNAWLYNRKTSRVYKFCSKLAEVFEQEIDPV
Description: (§2) Bubbles indicate the percentage of inhibition of the binding of the analyzed bromodomains to an acetylated substrate. […] (g) BromoKdELECT assay for CeMMEC1 against TAF1 (2). […] (i) Docking of CeMMEC1 to the second bromodomain of TAF1. 3D model (top panel) and 2D ligand interaction diagram (bottom panel). Red dots in the 3D model indicate water molecules.
(§3) (c) not used (d) KinomeScan profile for CeMMEC1 (10 μM). Bubbles indicate the percentage of inhibition of the binding of the analyzed kinase to an immobilized ligand.

TAF1 (2) = target: T2, TAF1 (2) (Homo sapiens, UniProt P21675); assay: BromoScan / BromoELECT / BromoKdELECT, TAF1 (2); type: binding; conditions: 10 μM; for binding to TAF1 (2): BromoScan/BromoELECT
T2 construct: the second bromodomain of TAF1 (TAF1 (2)); purchased DiscoverX Corporation (contract assay); host or cells: T7 phage in E. coli host derived from BL21
T2 sequence (P21675 1519-1628 limits assumed): T1 sequence (P21675 1519-1628 limits assumed)
Description: as §2, §3

THP1 cells [6] = assay: Cell viability of THP1 cells, combination with (S)-JQ1; type: cell-based, human

Cn1c(=O)ccc2c(C(=O)Nc3ccc4c(c3)OCCO4)cccc21 [Compound 4-24]
inhibition at 1 µM (TAF1(BD2) [1]): 58%

Cc1nnc2ccc(NCCC3=CCCCC3)nn12 [CeMMEC2]
c-MYC expression [2]: capable of reducing the expression of this oncogene in a dose-dependent manner | cell viability with TAF1 downregulation (KBM7 cells): synergism | apoptosis (AnnexinV staining) (THP1 cells [3]): induced apoptosis | number of cells in S-phase (THP1 cells [4]): clear and dose-dependent decrease of the number of cells in S-phase

Cn1c2c(ccc1=O)C(NC(=O)c1ccc3c(c1)OCCO3)CCC2 (stereo not shown) [Compound 4-29]
inhibition at 1 µM (TAF1(BD2) [1]): 32%

COc1ccc(NC(=O)c2cc(=O)n(C)c3ccccc23)cc1 [Compound 4-2]
inhibition at 1 µM (TAF1(BD2) [1]): 9%

Cn1ccc(C(=O)Nc2ccc(OC(F)(F)F)cc2)cc1=O [Compound 4-13]
inhibition at 1 µM (TAF1(BD2) [1]): 3%

Cn1c(=O)cc(C(=O)Nc2ccc(OC(F)(F)F)cc2)c2ccccc21 [Compound 4-3]
inhibition at 1 µM (TAF1(BD2) [1]): 20%

COc1cc(OC)c2c(=O)[nH]c(-c3cc(C)c(OCCO)c(C)c3)nc2c1 [RVX208]
confirmed screening hit (RFP induction in REDS3 screen) (REDS3 cells; 24 hours): part of this group

Cn1ccc2c(NC(=O)c3ccc(OC(F)(F)F)cc3)cccc2c1=O [Compound 4-17]
inhibition at 1 µM (TAF1(BD2) [1]): 11%

phytohemagglutinin [PHA]
RFP expression in REDS3 cells (REDS3 cells): No increase of RFP-positive nuclei was observed

CC[C@@H]1C(=O)N(C)c2cnc(Nc3ccc(C(=O)NC4CCN(C)CC4)cc3OC)nc2N1C1CCCC1 [BI-2536]
confirmed screening hit (RFP induction in REDS3 screen) (REDS3 cells; 24 hours): part of this group

Cn1c(=O)cc(C(=O)Nc2ccc3c(c2)OCCO3)c2ccccc21 [Compound 4-1]
TAF1_BD2 (% inhibition at 1 μM) (TAF1(BD2) [1]): 89% | IC50 (TAF1(BD2) [5]): 0.25 µM

COc1ccc(CCc2nc3cc(-c4c(C)noc4C)ccc3n2C[C@H](C)N2CCOCC2)cc1Cl [CBP30]
increase of RFP-positive cells compared to DMSO treated cells (REDS3 cells; 10 μM, 24 hours): 1.5 fold

COc1cc2c(cc1-c1c(C)noc1C)ncc1[nH]c(=O)n([C@H](C)c3ccccn3)c12 [I-BET151]
confirmed screening hit (RFP induction in REDS3 screen) (REDS3 cells; 24 hours): part of this group

COc1ccc(C(=O)Nc2cccc3c(=O)n(C)ccc23)cc1 [Compound 4-16]
inhibition at 1 µM (TAF1(BD2) [1]): 34%

Cn1c2c(ccc1=O)C(NC(=O)c1ccc(OC(F)(F)F)cc1)CCC2 (stereo not shown) [Compound 4-32]
inhibition at 1 µM (TAF1(BD2) [1]): 10%

Cn1ccc(C(=O)Nc2ccc3c(c2)OCCO3)cc1=O [Compound 4-10]
inhibition at 1 µM (TAF1(BD2) [1]): 3%

Cc1cnc(Nc2ccc(OCCN3CCCC3)cc2)nc1Nc1cccc(S(=O)(=O)NC(C)(C)C)c1 [TG-101348]
confirmed screening hit (RFP induction in REDS3 screen) (REDS3 cells; 24 hours): part of this group

Cn1c(=O)cc(C(=O)Nc2ccc3c(c2)OCCO3)c2ccccc21 [Compound 29]
synergy with (S)-JQ1 (Bliss independence test) (H23 cells): the most effective | RFP expression in REDS3 cells in combination with (S)-JQ1 (REDS3 cells): further boosted RFP expression beyond the increase in single treatments | RFP expression in REDS3 cells (REDS3 cells): comparable induction of RFP expression in REDS3 cells | binding to CREBBP (CREBBP): lost all affinity to CREBBP | selectivity among BRD4 (1), BRD9, CREBBP, EP300 and TAF1 (2) (TAF1 (2); BromoELECT): high selectivity for the TAF1 (2) bromodomain | binding to TAF1 (2) (TAF1 (2)): retaining TAF1 activity | IC50 (TAF1(BD2) [5]): 3.1 µM | synergy with (S)-JQ1 (Bliss independence test) (THP1 cells [6]): the most effective

COc1cc(OC)cc(C(=O)Nc2cccc3c2ccc(=O)n3C)c1 [Compound 4-28]
inhibition at 1 µM (TAF1(BD2) [1]): 50%

Cn1c(=O)ccc2c(NC(=O)c3ccc4c(c3)CCCO4)cccc21 [Compound 4-25]
TAF1_BD2 (% inhibition at 1 μM) (TAF1(BD2) [1]): 4%

Cc1sc2c(c1C)C(c1ccc(Cl)cc1)=N[C@@H](CC(=O)Nc1ccc(O)cc1)c1nnc(C)n1-2 [OXT015]
confirmed screening hit (RFP induction in REDS3 screen) (REDS3 cells; 24 hours): part of this group

CCC(=O)N1CCOc2c(cc(-c3ccc(OC)c(OC)c3)cc2OC[C@H]2CCCN(C)C2)C1 [I-CBP112]
RFP expression in REDS3 cells (REDS3 cells): No RFP expression was detected

Cc1sc2c(c1C)C(c1ccc(Cl)cc1)=N[C@@H](CC(=O)OC(C)(C)C)c1nnc(C)n1-2 [(S)-JQ1, reference compound]
lowest concentration causing full activation of RFP signal (REDS3 cells; 24 hours): 0.5 µM | confirmed screening hit (RFP induction in REDS3 screen) (REDS3 cells; 24 hours): part of this group | RFP expression in REDS3 cells (REDS3 cells): clear and robust increase of RFP expression | cell viability with TAF1 downregulation (KBM7 cells): Downregulation of TAF1 decreased cell viability when (S)-JQ1 was used at concentrations not able to affect control cells | apoptosis (AnnexinV staining) (THP1 cells [3]): induced apoptosis | number of cells in S-phase (THP1 cells [4]): clear and dose-dependent decrease of the number of cells in S-phase

Cn1ccc2c(NC(=O)c3ccc4c(c3)OCCO4)cccc2c1=O [Compound 30]
RFP expression in REDS3 cells in combination with (S)-JQ1 (REDS3 cells): further boosted RFP expression beyond the increase in single treatments | RFP expression in REDS3 cells (REDS3 cells): comparable induction of RFP expression in REDS3 cells | binding to CREBBP (CREBBP): lost all affinity to CREBBP | binding to TAF1 (2) (TAF1 (2)): retaining TAF1 activity | IC50 (TAF1(BD2) [5]): 4 µM

CCCCCCCCCCCCCC(=O)O[C@@H]1[C@@H](C)[C@@]2(O)[C@@H](C=C(CO)C[C@]3(O)C(=O)C(C)=C[C@@H]23)[C@@H]2C(C)(C)[C@]12OC(C)=O [PMA, phorbol myristate acetate]
RFP expression in REDS3 cells (REDS3 cells): No increase of RFP-positive nuclei was observed

COc1ccccc1S(=O)(=O)Nc1ccc2c(c1)CN(C)C(=O)N2 [PFI1]
confirmed screening hit (RFP induction in REDS3 screen) (REDS3 cells; 24 hours): part of this group

COc1cc(OC)cc(C(=O)NC2CCCc3c2ccc(=O)n3C)c1 (stereo not shown) [Compound 4-33]
inhibition at 1 µM (TAF1(BD2) [1]): 11%

COc1cc(NC(=O)c2ccn(C)c(=O)c2)cc(OC)c1 [Compound 4-14]
inhibition at 1 µM (TAF1(BD2) [1]): 20%

COc1ccc(C(=O)NC2CCCc3c2ccc(=O)n3C)cc1 (stereo not shown) [Compound 4-31]
inhibition at 1 µM (TAF1(BD2) [1]): 34%

COc1cc(NC(=O)c2cc(=O)n(C)c3ccccc23)cc(OC)c1 [Compound 4-4]
inhibition at 1 µM (TAF1(BD2) [1]): 48%

COc1ccc(C(=O)Nc2cccc3c2ccc(=O)n3C)cc1 [Compound 4-26]
TAF1_BD2 (% inhibition at 1 μM) (TAF1(BD2) [1]): 82% | IC50 (TAF1(BD2) [5]): 0.056 µM
